# Data from patent publication US9932314B2, “Pyrazole compounds and their use as T-type calcium channel blockers” (IDORSIA PHARMACEUTICALS LTD, priority 2015, dated 2018).
# Target: T1, voltage-dependent T-type calcium channel subunit alpha-1G (Cav3.2) (Homo sapiens, UniProt O95180)
# T1 construct: expressed in transfected cells; host or cells: HEK293
# Experiment: FLIPR calcium flux assay, HEK293 cells recombinantly expressing Cav3.2
# Format: cell-based
# Conditions: Cav3.2-channel, Fluo-4-AM, 3 min incubation, stimulation with 10 mM CaCl2
# Outline: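 Calcium influx was triggered by adding CaCl2 to 10 mM final, 3 min after compounds in tetraethylammonium-based buffer, pH 7.2, reached Fluo-4-AM-loaded recombinant HEK293 cells. The integrated kinetic fluorescence signal per concentration gave concentration-response curves by non-linear sigmoidal regression.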
# T1 sequence (O95180 whole entry): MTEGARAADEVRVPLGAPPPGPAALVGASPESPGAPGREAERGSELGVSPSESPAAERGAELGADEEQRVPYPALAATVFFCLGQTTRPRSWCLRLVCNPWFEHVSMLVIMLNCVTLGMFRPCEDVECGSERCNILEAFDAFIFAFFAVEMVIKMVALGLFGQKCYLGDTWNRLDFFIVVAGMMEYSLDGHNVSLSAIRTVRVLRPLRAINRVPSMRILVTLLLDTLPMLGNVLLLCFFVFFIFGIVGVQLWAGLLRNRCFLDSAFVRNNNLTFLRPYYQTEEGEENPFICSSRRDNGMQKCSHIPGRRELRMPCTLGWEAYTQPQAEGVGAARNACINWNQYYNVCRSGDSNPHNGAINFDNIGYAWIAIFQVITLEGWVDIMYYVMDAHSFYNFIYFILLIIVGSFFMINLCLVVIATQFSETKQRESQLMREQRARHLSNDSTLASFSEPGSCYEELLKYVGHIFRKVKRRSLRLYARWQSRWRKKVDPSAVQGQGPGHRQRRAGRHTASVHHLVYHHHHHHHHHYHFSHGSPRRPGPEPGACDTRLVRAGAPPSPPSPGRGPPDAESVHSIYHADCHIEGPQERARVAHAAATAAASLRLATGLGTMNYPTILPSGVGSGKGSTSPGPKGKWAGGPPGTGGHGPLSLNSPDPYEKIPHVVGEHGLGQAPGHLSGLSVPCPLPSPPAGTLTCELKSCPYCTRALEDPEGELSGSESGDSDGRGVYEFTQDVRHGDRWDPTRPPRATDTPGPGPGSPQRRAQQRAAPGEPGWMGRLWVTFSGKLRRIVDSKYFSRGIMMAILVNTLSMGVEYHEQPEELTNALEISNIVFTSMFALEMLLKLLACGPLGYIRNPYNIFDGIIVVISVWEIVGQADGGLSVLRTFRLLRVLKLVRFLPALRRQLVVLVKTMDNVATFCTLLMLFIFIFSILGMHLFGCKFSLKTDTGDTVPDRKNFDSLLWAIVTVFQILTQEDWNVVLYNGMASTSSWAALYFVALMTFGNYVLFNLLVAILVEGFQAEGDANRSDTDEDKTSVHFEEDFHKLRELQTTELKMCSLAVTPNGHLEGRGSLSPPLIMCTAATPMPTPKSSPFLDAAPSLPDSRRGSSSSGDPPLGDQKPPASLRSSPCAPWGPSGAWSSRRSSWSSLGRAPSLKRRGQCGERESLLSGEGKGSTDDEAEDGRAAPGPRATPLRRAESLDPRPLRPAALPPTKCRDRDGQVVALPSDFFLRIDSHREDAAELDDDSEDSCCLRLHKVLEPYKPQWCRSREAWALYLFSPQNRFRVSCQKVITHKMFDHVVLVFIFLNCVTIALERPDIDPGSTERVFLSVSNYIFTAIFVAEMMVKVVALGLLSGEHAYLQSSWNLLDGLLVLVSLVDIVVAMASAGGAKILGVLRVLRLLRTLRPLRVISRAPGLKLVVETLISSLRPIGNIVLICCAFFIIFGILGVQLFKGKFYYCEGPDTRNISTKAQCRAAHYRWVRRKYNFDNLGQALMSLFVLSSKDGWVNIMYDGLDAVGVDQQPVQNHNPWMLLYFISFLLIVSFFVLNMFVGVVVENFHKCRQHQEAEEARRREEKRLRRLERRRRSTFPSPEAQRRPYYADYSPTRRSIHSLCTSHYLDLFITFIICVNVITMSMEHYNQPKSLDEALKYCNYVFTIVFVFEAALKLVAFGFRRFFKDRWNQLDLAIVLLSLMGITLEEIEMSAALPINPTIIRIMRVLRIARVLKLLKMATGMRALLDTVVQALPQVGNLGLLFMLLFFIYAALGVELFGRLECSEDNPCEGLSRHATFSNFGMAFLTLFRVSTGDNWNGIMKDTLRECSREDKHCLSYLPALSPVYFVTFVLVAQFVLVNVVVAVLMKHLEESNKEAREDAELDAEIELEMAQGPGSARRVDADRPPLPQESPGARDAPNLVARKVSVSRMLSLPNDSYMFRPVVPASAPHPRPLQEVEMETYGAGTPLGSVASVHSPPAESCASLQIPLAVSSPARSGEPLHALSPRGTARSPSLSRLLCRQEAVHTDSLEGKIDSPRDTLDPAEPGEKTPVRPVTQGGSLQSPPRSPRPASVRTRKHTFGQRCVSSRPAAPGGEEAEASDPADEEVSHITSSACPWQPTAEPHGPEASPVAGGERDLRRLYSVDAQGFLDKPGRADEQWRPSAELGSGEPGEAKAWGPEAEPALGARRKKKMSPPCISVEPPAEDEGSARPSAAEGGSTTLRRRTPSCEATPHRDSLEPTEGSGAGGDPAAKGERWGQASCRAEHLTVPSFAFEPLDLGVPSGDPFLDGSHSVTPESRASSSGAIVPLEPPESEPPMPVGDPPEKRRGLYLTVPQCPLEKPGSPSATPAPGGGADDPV
row,IC50,SMILES
1,12 nM,"CC(C)c1ccc(CC(=O)Nc2ccn(Cc3ccc(F)c(C#N)c3)n2)cc1 [Example 282, N-[1-(3-Cyano-4-fluoro-benzyl)-1H-pyrazol-3-yl]-2-(4-isopropyl-phenyl)-acetamide]"
2,9.5 nM,"CC(C)(C)c1ccc(CC(=O)Nc2ccn(Cc3ccc(F)c(C#N)c3)n2)cc1 [Example 283, 2-(4-tert-Butyl-phenyl)-N-[1-(3-cyano-4-fluoro-benzyl)-1H-pyrazol-3-yl]-acetamide]"
3,3070 nM,"CC1(COc2ccc(CC(=O)Nc3ccn(Cc4ccc(C#N)cn4)n3)cc2)COC1 [Example 284, N-[1-(5-Cyano-pyridin-2-ylmethyl)-1H-pyrazol-3-yl]-2-[4-(3-methyl-oxetan-3-ylmethoxy)-phenyl]-acetamide]"
4,208 nM,"CC1(COc2ccc(CC(=O)Nc3ccn(Cc4ccc(C#N)cc4)n3)cc2)COC1 [Example 285, N-[1-(4-Cyano-benzyl)-1H-pyrazol-3-yl]-2-[4-(3-methyl-oxetan-3-ylmethoxy)-phenyl]-acetamide]"
5,393 nM,"N#Cc1ccc(Cn2ccc(NC(=O)Cc3ccc(OCC4COC4)cc3)n2)cc1 [Example 286, N-[1-(4-Cyano-benzyl)-1H-pyrazol-3-yl]-2-[4-(oxetan-3-ylmethoxy)-phenyl]-acetamide]"
6,9480 nM,"N#Cc1ccc(Cn2ccc(NC(=O)Cc3ccc(OCC4COC4)cc3)n2)nc1 [Example 287, N-[1-(5-Cyano-pyridin-2-ylmethyl)-1H-pyrazol-3-yl]-2-[4-(oxetan-3-ylmethoxy)-phenyl]-acetamide]"
7,4.7 nM,"N#Cc1ccc(Cn2ccc(NC(=O)Cc3ccc(C4CC(F)(F)C4)cc3)n2)cc1F [Example 288, N-[1-(4-Cyano-3-fluoro-benzyl)-1H-pyrazol-3-yl]-2-[4-(3,3-difluoro-cyclobutyl)-phenyl]-acetamide]"
8,23 nM,"N#Cc1ccc(Cn2ccc(NC(=O)Cc3ccc(OCC4CC(F)(F)C4)cc3)n2)cc1F [Example 289, N-[1-(4-Cyano-3-fluoro-benzyl)-1H-pyrazol-3-yl]-2-[4-(3,3-difluoro-cyclobutylmethoxy)-phenyl]-acetamide]"
9,39 nM,"CC1(COc2ccc(CC(=O)Nc3ccn(Cc4ccc(C#N)c(F)c4)n3)cc2)CC(F)(F)C1 [Example 290, N-[1-(4-Cyano-3-fluoro-benzyl)-1H-pyrazol-3-yl]-2-[4-(3,3-difluoro-1-methyl-cyclobutylmethoxy)-phenyl]-acetamide]"
10,80 nM,"Cn1ncc2ccc(CC(=O)Nc3ccn(Cc4ccc(C#N)c(F)c4)n3)cc21 [Example 291, N-[1-(4-Cyano-3-fluoro-benzyl)-1H-pyrazol-3-yl]-2-(1-methyl-1H-indazol-6-yl)-acetamide]"
11,6.5 nM,"Cn1ccc2cc(CC(=O)Nc3ccn(Cc4ccc(C#N)c(F)c4)n3)ccc21 [Example 292, N-[1-(4-Cyano-3-fluoro-benzyl)-1H-pyrazol-3-yl]-2-(1-methyl-1H-indol-5-yl)-acetamide]"
12,6.6 nM,"Cn1ccc2ccc(CC(=O)Nc3ccn(Cc4ccc(C#N)c(F)c4)n3)cc21 [Example 293, N-[1-(4-Cyano-3-fluoro-benzyl)-1H-pyrazol-3-yl]-2-(1-methyl-1H-indol-6-yl)-acetamide]"
13,22 nM,"N#Cc1ccc(Cn2ccc(NC(=O)Cc3ccc(N4CCC(F)(F)C4)nc3)n2)cc1F [Example 294, N-[1-(4-Cyano-3-fluoro-benzyl)-1H-pyrazol-3-yl]-2-[6-(3,3-difluoro-pyrrolidin-1-yl)-pyridin-3-yl]-acetamide]"
14,308 nM,"Cn1ncc2ccc(CC(=O)Nc3ccn(Cc4ccc(C#N)cc4)n3)cc21 [Example 295, N-[1-(4-Cyano-benzyl)-1H-pyrazol-3-yl]-2-(1-methyl-1H-indazol-6-yl)-acetamide]"
15,17 nM,"Cn1ccc2cc(CC(=O)Nc3ccn(Cc4ccc(C#N)cc4)n3)ccc21 [Example 296, N-[1-(4-Cyano-benzyl)-1H-pyrazol-3-yl]-2-(1-methyl-1H-indol-5-yl)-acetamide]"
16,20 nM,"Cn1ccc2ccc(CC(=O)Nc3ccn(Cc4ccc(C#N)cc4)n3)cc21 [Example 297, N-[1-(4-Cyano-benzyl)-1H-pyrazol-3-yl]-2-(1-methyl-1H-indol-6-yl)-acetamide]"
17,43 nM,"CC1(COc2ccc(CC(=O)Nc3ccn(Cc4ccc(C#N)cc4)n3)cc2)CC(F)(F)C1 [Example 298, N-[1-(4-Cyano-benzyl)-1H-pyrazol-3-yl]-2-[4-(3,3-difluoro-1-methyl-cyclobutylmethoxy)-phenyl]-acetamide]"
18,37 nM,"N#Cc1ccc(Cn2ccc(NC(=O)Cc3ccc(OCC4CC(F)(F)C4)cc3)n2)cc1 [Example 299, N-[1-(4-Cyano-benzyl)-1H-pyrazol-3-yl]-2-[4-(3,3-difluoro-cyclobutylmethoxy)-phenyl]-acetamide]"
19,7.5 nM,"N#Cc1ccc(Cn2ccc(NC(=O)Cc3ccc(C4CC(F)(F)C4)cc3)n2)cc1 [Example 300, N-[1-(4-Cyano-benzyl)-1H-pyrazol-3-yl]-2-[4-(3,3-difluoro-cyclobutyl)-phenyl]-acetamide]"

row,IC50,SMILES
1,71 nM,"Cn1ccc2cc(CC(=O)Nc3ccn(Cc4ccc(C#N)cn4)n3)ccc21 [Example 301, N-[1-(5-Cyano-pyridin-2-ylmethyl)-1H-pyrazol-3-yl]-2-(1-methyl-1H-indol-5-yl)-acetamide]"
2,39 nM,"Cn1ccc2ccc(CC(=O)Nc3ccn(Cc4ccc(C#N)cn4)n3)cc21 [Example 302, N-[1-(5-Cyano-pyridin-2-ylmethyl)-1H-pyrazol-3-yl]-2-(1-methyl-1H-indol-6-yl)-acetamide]"
3,51 nM,"CC1(COc2ccc(CC(=O)Nc3ccn(Cc4ccc(C#N)cn4)n3)cc2)CC(F)(F)C1 [Example 303, N-[1-(5-Cyano-pyridin-2-ylmethyl)-1H-pyrazol-3-yl]-2-[4-(3,3-difluoro-1-methyl-cyclobutylmethoxy)-phenyl]-acetamide]"
4,118 nM,"N#Cc1ccc(Cn2ccc(NC(=O)Cc3ccc(OCC4CC(F)(F)C4)cc3)n2)nc1 [Example 304, N-[1-(5-Cyano-pyridin-2-ylmethyl)-1H-pyrazol-3yl]-2-[4-(3,3-difluoro-cyclobutylmethoxy)-phenyl]-acetamide]"
5,29 nM,"N#Cc1ccc(Cn2ccc(NC(=O)Cc3ccc(C4CC(F)(F)C4)cc3)n2)nc1 [Example 305, N-[1-(5-Cyano-pyridin-2-ylmethyl)-1H-pyrazol-3-yl]-2-[4-(3,3-difluoro-cyclobutyl)-phenyl]-acetamide]"
6,17 nM,"N#Cc1cc(Cn2ccc(NC(=O)Cc3ccc(N4CCC(F)(F)C4)nc3)n2)ccc1F [Example 306, N-[1-(3-Cyano-4-fluoro-benzyl)-1H-pyrazol-3-yl]-2-[6-(3,3-difluoro-pyrrolidin-1-yl)-pyridin-3-yl]-acetamide]"
7,42 nM,"N#Cc1cc(Cn2ccc(NC(=O)Cc3ccc(N4CCCC4)nc3)n2)ccc1F [Example 307, N-[1-(3-Cyano-4-fluoro-benzyl)-1H-pyrazol-3-yl]-2-(6-pyrrolidin-1-yl-pyridin-3-yl)-acetamide]"
8,263 nM,"Cn1ncc2ccc(CC(=O)Nc3ccn(Cc4ccc(F)c(C#N)c4)n3)cc21 [Example 308, N-[1-(3-Cyano-4-fluoro-benzyl)-1H-pyrazol-3-yl]-2-(1-methyl-1H-indazol-6-yl)-acetamide]"
9,27 nM,"Cn1ccc2ccc(CC(=O)Nc3ccn(Cc4ccc(F)c(C#N)c4)n3)cc21 [Example 309, N-[1-(3-Cyano-4-fluoro-benzyl)-1H-pyrazol-3-yl]-2-(1-methyl-1H-indol-6-yl)-acetamide]"
10,13 nM,"Cn1ccc2cc(CC(=O)Nc3ccn(Cc4ccc(F)c(C#N)c4)n3)ccc21 [Example 310, N-[1-(3-Cyano-4-fluoro-benzyl)-1H-pyrazol-3-yl]-2-(1-methyl-1H-indol-5-yl)-acetamide]"
11,81 nM,"CC1(COc2ccc(CC(=O)Nc3ccn(Cc4ccc(F)c(C#N)c4)n3)cc2)CC(F)(F)C1 [Example 311, N-[1-(3-Cyano-4-fluoro-benzyl)-1H-pyrazol-3-yl]-2-[4-(3,3-difluoro-1-methyl-cyclobutylmethoxy)-phenyl]-acetamide]"
12,10 nM,"N#Cc1cc(Cn2ccc(NC(=O)Cc3ccc(C4CC(F)(F)C4)cc3)n2)ccc1F [Example 312, N-[1-(3-Cyano-4-fluoro-benzyl)-1H-pyrazol-3-yl]-2-[4-(3,3-difluoro-cyclobutyl)-phenyl]-acetamide]"
13,45 nM,"N#Cc1cc(Cn2ccc(NC(=O)Cc3ccc(OCC4CC(F)(F)C4)cc3)n2)ccc1F [Example 313, N-[1-(3-Cyano-4-fluoro-benzyl)-1H-pyrazol-3-yl]-2-[4-(3,3-difluoro-cyclobutylmethoxy)-phenyl]-acetamide]"
14,32 nM,"N#Cc1cc(Cn2ccc(NC(=O)Cc3ccc(C4(C(F)(F)F)CC4)cc3)n2)ccc1F [Example 314, N-[1-(3-Cyano-4-fluoro-benzyl)-1H-pyrazol-3-yl]-2-[4-(1-trifluoromethyl-cyclopropyl)-phenyl]-acetamide]"
15,240 nM,"O=C(Cc1ccc(C2(F)COC2)nc1)Nc1ccn(Cc2ccc(F)c(F)c2)n1 [Example 315, N-[1-(3,4-Difluoro-benzyl)-1H-pyrazol-3-yl]-2-[6-(3-fluoro-oxetan-3-yl)-pyridin-3-yl]-acetamide]"
16,36 nM,"CC1(c2ccc(CC(=O)Nc3ccn(Cc4ccc(F)c(C#N)c4)n3)cc2)COC1 [Example 316, N-[1-(3-Cyano-4-fluoro-benzyl)-1H-pyrazol-3-yl]-2-[4-(3-methyl-oxetan-3-yl)-phenyl]-acetamide]"
17,56 nM,"CC1(c2ccc(CC(=O)Nc3ccn(Cc4ccc(C#N)cc4)n3)cc2)COC1 [Example 317, N-[1-(4-Cyano-benzyl)-1H-pyrazol-3-yl]-2-[4-(3-methyl-oxetan-3-yl)-phenyl]-acetamide]"
18,378 nM,"CC1(c2ccc(CC(=O)Nc3ccn(Cc4ccc(C#N)cn4)n3)cc2)COC1 [Example 318, N-[1-(5-Cyano-pyridin-2-ylmethyl)-1H-pyrazol-3-yl]-2-[4-(3-methyl-oxetan-3-yl)-phenyl]-acetamide]"
